This note sets out measurements from PubChem BioAssay (NCI).

The structures appear in SMILES notation.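 Compound exposure: 48 hours, 5 concentrations, 96-well plates. The concentration for 50% growth inhibition is given as GI50. TGI marks complete inhibition of growth.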

Assay in all cases: DTP human tumour cell line panel, 48 h
Assay [1] relates to U251 CNS.
The subject of assay [2] is NCI-H226 lung.
Assay [3] relates to SR leukemia.
The test system of assay [4] is HCT-15 colon.
The subject of assay [5] is SF-295 CNS.
The subject of assay [6] is HCC-2998 colon.
Assay [7] has as its system HOP-92 NSCLC.
The subject of assay [8] is SK-OV-3 ovarian.
In assay [9] the test system is OVCAR-3 ovarian.
Assay [10] has as its system SNB-19 CNS.

By GI50 is commonly meant the concentration at which growth is held to half of that of the control. Broadly, the TGI is the concentration giving total growth inhibition. For `COc1ccc(S(=O)(=O)N(Cc2ccc3c(n2)C=CC(C)(C)O3)C2CCC2)cc1OC`, the GI50 in assay [1] is less than 0.01 µM; in assay [2], 0.0101 µM; in assay [3] it was less than 0.01 µM; in [4], 0.0154 µM; in assay [5], 0.0134 µM; in assay [6], less than 0.01 µM. Moreover, the GI50 in assay [7], in [8] and in [9] was less than 0.01 µM each time. Moreover, the TGI was 0.883 µM in assay [1]; 3.75 µM in [2]; 0.0324 µM in [3]; more than 33.6 µM in assay [4]; 0.542 µM in assay [5]; 3.79 µM in [6]. Also, the TGI is less than 0.01 µM in [7], less than 0.01 µM in assay [8] and 0.0955 µM in assay [9].

`O=C(O)c1cc(N=Nc2ccc([As](=O)(O)O)cc2)ccc1O`: the TGI in assay [10], in [1], in [2], in assay [3], in [4] and in [5] was more than 100 µM throughout. Further, the TGI in assay [6], in assay [8] and in assay [9] was more than 100 µM each time.

Take `C#CC[C@]12CC(=O)CC[C@H]1CC(=O)C2`: the TGI in assay [10], in assay [1], in [2], in assay [3], in assay [4] and in assay [6] was more than 100 µM in each case. Besides, the TGI in assay [8] and in [9] was more than 100 µM in each case.

On to `NC1C2(CCCCCC2)NC(=O)C12CCCCCC2` (stereo not drawn), for which the TGI in assay [10], in assay [1], in [3], in assay [4], in [5] and in assay [7] was more than 100 µM each time. In addition, the TGI in assay [8] and in [9] was more than 100 µM throughout.

Consider `CC(=O)c1ccc(NC(=O)/C(Cc2ccccn2)=N/NC(=O)C[N+](C)(C)C)cc1`, for which the TGI in assay [10], in assay [1], in [2], in assay [3], in assay [4] and in assay [5] was more than 100 µM throughout. Also, the TGI in assay [6], in assay [8] and in assay [9] was more than 100 µM in each case.

On to `N#CCCN(c1ccc(/C=C2\N=C(c3ccc(Cl)cc3)OC2=O)cc1)S(=O)(=O)c1ccccc1`, for which the TGI in assay [10], in assay [1], in assay [2], in assay [3], in assay [4] and in assay [5] was more than 100 µM throughout. For the same molecule, the total growth inhibition concentration (TGI) in assay [6], in assay [8] and in assay [9] was more than 100 µM throughout.

As for `O=C(O)C1C(C(=O)O)C(C(=O)O)C1C(=O)O` (stereo not drawn), the TGI in assay [10], in assay [1], in assay [2], in assay [3], in [4] and in assay [5] was more than 100 µM in each case. Moreover, the TGI in assay [7], in assay [8] and in [9] was more than 100 µM throughout.

For `O=C(C[C@@H](C(=O)NCc1cccc(C(F)(F)F)c1)N1C(=O)[C@@H](N2C(=O)OC[C@@H]2c2ccccc2)[C@H]1/C=C/c1ccccc1)NC1CCN(Cc2ccccc2)CC1`, the GI50 in assay [10] was 9.33 µM; in assay [1] it was 4.58 µM; in assay [2], 48.2 µM; in assay [3] it was 1.89 µM; in assay [4] it was 10.9 µM; in assay [5] it was 15.6 µM. The GI50 in [6] was 6.2 µM; in [8], 15.3 µM; in [9], 10.4 µM. For the same molecule, the TGI is 36.5 µM in assay [10]; 17.2 µM in assay [1]; more than 100 µM in assay [2]; 5.43 µM in assay [3]; 35.2 µM in assay [4]; 30.8 µM in assay [5]. Besides, the TGI turned out to be 21.2 µM in assay [6], 28.6 µM in assay [8] and 25.1 µM in assay [9].

In the case of `CCOC(=O)[C@H]1Nc2ccc(C)cc2C2c3ccccc3CC21` (stereo partly drawn), the TGI in [10], in assay [1], in [2], in assay [3], in assay [4] and in assay [5] was more than 100 µM throughout. The TGI in [6] and in assay [9] was more than 100 µM in each case.

Take `Cc1c2c(nn1-c1ccc(S(=O)(=O)/N=C3\SCC(=O)N3C(=O)c3ccccc3)cc1)-c1ccccc1CC2`: the GI50 in [1] was 23.3 µM; in [2], 24 µM; in assay [3], 69.9 µM; in assay [4], 22.4 µM; in assay [5], 21.6 µM; in assay [6], 98.6 µM. Also, the GI50 is 30.9 µM in assay [7] and 15.8 µM in assay [9]. For the same molecule, the TGI in assay [1] is 62.4 µM; in [2], 56.4 µM; in [3], more than 100 µM; in assay [4], 49.5 µM; in assay [5], 58.2 µM; in assay [6], more than 100 µM. For the same molecule, the TGI in assay [7] worked out at 66.2 µM; in [9], 39.1 µM.

Turning to `COC(=O)C(=O)C(C(=O)C(=O)Nc1ccc(C)cc1C)c1nc2ccccc2[nH]c1=O` (stereo not drawn), the TGI in [10], in assay [1], in assay [2], in [3], in [4] and in assay [5] was more than 100 µM each time. Moreover, the TGI in assay [6], in assay [8] and in assay [9] was more than 100 µM throughout.

As to `CSc1ccc(/C=C2/C[N+](C)(C)C/C(=C/c3ccc(SC)cc3)C2=O)cc1`, the TGI was 7.92 µM in assay [1]; 72.5 µM in assay [2]; 71.7 µM in [3]; more than 100 µM in [4]; 65 µM in assay [5]; 34 µM in assay [6]. Further, the TGI in assay [7] came out at 42.1 µM; in assay [9], 38.3 µM.

With `N#Cc1cnsc1`, the TGI in [1], in [2], in assay [3], in [4], in assay [5] and in [6] was more than 100 µM each time. Also, the TGI in assay [7], in assay [8] and in [9] was more than 100 µM throughout.

Consider `COc1ccc2cc(C(=O)/C=C/c3cccc(OC)c3OC)ccc2c1`, for which the GI50 was 15.6 µM in assay [10]; 7.9 µM in assay [1]; 2.88 µM in assay [3]; 3.53 µM in assay [4]; 14.2 µM in assay [6]; 36.2 µM in [7]. The GI50 in assay [8] is 23.7 µM; in assay [9], 19 µM. For the same molecule, the TGI in assay [10] was 33.5 µM; in assay [1], 22 µM; in assay [3], more than 100 µM; in [4], 15.4 µM; in assay [6], 27.2 µM; in assay [7], more than 100 µM. In addition, the TGI in assay [8] is 45.9 µM; in assay [9], 35.5 µM.

With `N#CCCN(CCC#N)c1ccc(/C=C2\N=C(CN3C(=O)c4ccccc4C3=O)OC2=O)cc1`, the TGI in [10], in assay [1], in assay [2], in [3], in [4] and in assay [5] was more than 100 µM each time. Moreover, the TGI in assay [6], in assay [8] and in [9] was more than 100 µM each time.

For `CC(C)=CC(=O)N1CCN(C(=O)C=C(C)C)CC1`, the TGI in assay [10], in assay [1], in [3], in [4], in [5] and in assay [6] was more than 100 µM each time. Further, the TGI in assay [7], in [8] and in assay [9] was more than 100 µM each time.

As to `CN(C)C(=S)/N=c1\ss/c(=N\C(=S)N(C)C)n1-c1ccc2c(c1)OCO2`, the TGI in assay [10], in assay [1], in [2], in assay [3], in assay [4] and in assay [5] was more than 100 µM in each case. Further, the TGI in assay [6], in [8] and in [9] was more than 100 µM in each case.

`O=[N+]([O-])c1ccc2nnnn2c1`: the TGI is more than 100 µM in assay [10]; 84.9 µM in [1]; 47.3 µM in [2]; 87.1 µM in [3]; 44.3 µM in assay [4]; more than 100 µM in assay [5]. Also, the TGI is more than 100 µM in [7], more than 100 µM in assay [8] and 35.2 µM in assay [9].

As to `O=C(CC(=O)N1N=C(c2ccccc2)C(N=Nc2ccc(Cl)cc2)C1=O)Nc1ccccc1Cl` (stereo not drawn), the TGI in [10] was 61 µM; in [1], 71.1 µM; in assay [2] it was 62.6 µM; in assay [3] it was more than 100 µM; in assay [4], more than 100 µM; in assay [6], more than 100 µM. Further, the TGI is 40.4 µM in assay [8] and 71.4 µM in assay [9].
